Results published in ChEMBL document CHEMBL3526005, “Pharmacokinetic and pharmacodynamic properties of cholinesterase inhibitors donepezil, tacrine, and galantamine in aged and young Lister hooded rats” (Drug Metab Dispos, 2011).
Active and inactive are the calls of the source. No cut-off for these calls is given here.

Key:
[1] = in vivo; conditions: Lister Hooded, rat, po, 3 mg/kg
[2] = Volume of distribution in 30 months-old Lister Hooded rat at 1 mg/kg, iv infusion for 1 hr; conditions: in vivo
[3] = Half life in 7 months-old Lister Hooded rat at 1 mg/kg, iv infusion for 1 hr; conditions: in vivo
[4] = Ratio of brain to blood in 7 months-old Lister Hooded rat blood at 3 mg/kg, po after 1 hr treatment
[5] = organism: Rattus norvegicus; conditions: in vivo, iv, 1 mg/kg, 1 h
[6] = Half life in 30 months-old Lister Hooded rat at 1 mg/kg, iv infusion for 1 hr; conditions: in vivo
[7] = Drug excretion in human urine assessed as unchanged drug level at 2 mg, po single dose; format: ADME, organism-based; conditions: read-out: Drug excretion
[8] = in vivo; conditions: Lister Hooded, rat, po, 3 mg/kg; remark: listed apart in the source
[9] = in vivo; conditions: Lister Hooded, rat, po, 3 mg/kg; remark: listed apart in the source
[10] = in vivo; conditions: Lister Hooded, rat, iv, 1 mg/kg
[11] = in vivo; conditions: Lister Hooded, rat, po, 3 mg/kg; remark: listed apart in the source
[12] = in vivo; conditions: Lister Hooded, rat, brain, po, 3 mg/kg
Description: Ratio of brain to blood in 30 months-old Lister Hooded rat blood at 3 mg/kg, po after 1 hr treatment

[13] = Mean residence time in 7 months-old Lister Hooded rat at 1 mg/kg, iv infusion for 1 hr; conditions: in vivo
[14] = in vivo; conditions: Lister Hooded, rat, po, 3 mg/kg; remark: listed apart in the source
[15] = Half life in human at 2 mg, po single dose; conditions: in vivo
[16] = Oral bioavailability in human at 2 mg single dose; conditions: in vivo
[17] = Mean residence time in 30 months-old Lister Hooded rat at 1 mg/kg, iv infusion for 1 hr; conditions: in vivo
[18] = Volume of distribution in 7 months-old Lister Hooded rat at 1 mg/kg, iv infusion for 1 hr; conditions: in vivo
[19] = organism: Rattus norvegicus; conditions: in vivo, po, 3 mg/kg
[20] = in vivo; conditions: Lister Hooded, rat, iv, 1 mg/kg; remark: listed apart in the source
[21] = tested on: Rattus norvegicus; experiment: Inhibition of cholinesterase activity in 30 months-old Lister Hooded rat plasma assessed as percent enhancement of inhibition at 3 mg/kg, po after 1 hr treatment; format: organism-based; set-up: dose 3 mg/kg; scale not given: the % may be the effect or the level left
[22] = tested on: Homo sapiens; experiment: Volume of distribution in human at 2 mg, po single dose; conditions: in vivo
[23] = Tmax in human at 2 mg, po single dose; conditions: in vivo
[24] = tested on: Rattus norvegicus; experiment: Inhibition of cholinesterase activity in 7 months-old Lister Hooded rat plasma at 3 mg/kg, po after 1 hr treatment; format: organism-based; set-up: dose 3 mg/kg
[25] = organism: Rattus norvegicus; conditions: in vivo, iv, 1 mg/kg, 1 h; remark: listed apart in the source
[26] = organism: Rattus norvegicus; conditions: in vivo, iv, 1 mg/kg, 1 h; remark: listed apart in the source
[27] = Clearance in human at 2 mg, po single dose; conditions: in vivo
[28] = in vivo; conditions: Lister Hooded, rat, po, 3 mg/kg; remark: listed apart in the source
[29] = in vivo; conditions: Lister Hooded, rat, iv, 1 mg/kg; remark: listed apart in the source
[30] = organism: Rattus norvegicus; conditions: in vivo, po, 3 mg/kg; remark: listed apart in the source
[31] = organism: Rattus norvegicus; conditions: in vivo, po, 3 mg/kg; remark: listed apart in the source
[32] = organism: Rattus norvegicus; conditions: in vivo, po, 3 mg/kg; remark: listed apart in the source
[33] = in vivo; conditions: Lister Hooded, rat, iv, 1 mg/kg; remark: listed apart in the source
[34] = organism: Rattus norvegicus; conditions: in vivo, iv, 1 mg/kg, 1 h; remark: listed apart in the source
[35] = Drug uptake in 30 months-old Lister Hooded rat blood at 3 mg/kg, po after 1 hr treatment; conditions: in vivo
[36] = Drug uptake in 7 months-old Lister Hooded rat blood at 3 mg/kg, po after 1 hr treatment; conditions: in vivo
[37] = Drug uptake in 7 months-old Lister Hooded rat assessed as corrected brain concentration at 3 mg/kg, po after 1 hr treatment; conditions: in vivo
[38] = Drug uptake in 30 months-old Lister Hooded rat assessed as corrected brain concentration at 3 mg/kg, po after 1 hr treatment; conditions: in vivo
[39] = Plasma protein binding in human at 2 mg, po single dose; conditions: in vivo
[40] = Drug excretion in human urine at 2 mg, po single dose; conditions: in vivo
[41] = Drug excretion in human feces at 2 mg, po single dose; conditions: in vivo
[42] = biological target: Butyrylcholinesterase (Rattus norvegicus) (UniProt Q9JKC1); conditions: Lister Hooded, Plasma, 3 mg/kg
Description: Inhibition of butyrylcholinesterase activity in 7 months-old Lister Hooded rat plasma at 3 mg/kg, po after 1 hr treatment

[43] = biological target: Butyrylcholinesterase (Rattus norvegicus) (UniProt Q9JKC1); conditions: Lister Hooded, 3 mg/kg
Description: Inhibition of butyrylcholinesterase activity in 7 months-old Lister Hooded rat brain at 3 mg/kg, po after 1 hr treatment

Chain of Butyrylcholinesterase (Rattus norvegicus) (Q9JKC1 as listed by the source): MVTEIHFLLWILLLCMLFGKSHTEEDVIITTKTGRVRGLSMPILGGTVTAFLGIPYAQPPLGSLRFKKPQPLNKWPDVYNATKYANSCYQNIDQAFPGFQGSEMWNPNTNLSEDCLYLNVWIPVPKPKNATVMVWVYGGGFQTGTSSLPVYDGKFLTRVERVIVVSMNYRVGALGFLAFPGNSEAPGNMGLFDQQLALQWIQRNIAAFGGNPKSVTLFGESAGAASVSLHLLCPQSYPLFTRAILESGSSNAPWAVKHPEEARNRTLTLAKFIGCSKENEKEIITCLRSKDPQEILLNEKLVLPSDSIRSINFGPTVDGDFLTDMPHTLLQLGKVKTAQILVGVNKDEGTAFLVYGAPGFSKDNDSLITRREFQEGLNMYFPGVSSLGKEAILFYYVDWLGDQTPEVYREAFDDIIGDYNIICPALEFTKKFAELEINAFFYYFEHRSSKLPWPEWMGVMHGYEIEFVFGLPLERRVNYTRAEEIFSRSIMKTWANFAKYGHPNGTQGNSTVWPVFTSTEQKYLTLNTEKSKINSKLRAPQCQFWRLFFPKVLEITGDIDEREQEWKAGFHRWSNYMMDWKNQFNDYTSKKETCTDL

Structure (SMILES) | bioavailability [1] | Vd at 1 h [2] | half-life at 1 h [3] | Kp at 1 h [4] | AUCt/dose [5] | half-life at 1 h [6] | Tmax [8] | Cmax [9] | Cmax [11] | Kp at 1 h [12] | MRT at 1 h [13] | bioavailability [14] | half-life [15] | bioavailability [16] | MRT at 1 h [17] | Vd at 1 h [18] | AUCt [19] | Vd [22] | Tmax [23] | inhibition [24] | also measured
COc1cc2c(cc1OC)C(=O)C(CC1CCN(Cc3ccccc3)CC1)C2.Cl (configuration not stated) [DONEPEZIL HYDROCHLORIDE] | 43% | 11.8 L/kg | 2.5 h | 4.4 | 16.4 kg·min/L | 3.6 h | 1 h | 180 nM | 200 nM | 5.3 | 3 h | 36% | 70 h | 100% | 4.6 h | 9.2 L/kg | 0.76 µM·h | 12 L/kg | 3 h | 92.6% | dose excreted [7]: 17%; clearance at 1 h ([10]; blood): 43 mL/min/kg; clearance at 1 h ([20]; blood): 52 mL/min/kg; Activity [21]: 18%; AUCt/dose [25]: 15.9 kg·min/L; AUC/dose [26]: 23.7 kg·min/L; CL/F [27]: 2.17 mL/min/kg; Tmax [28]: 1 h; Cmax at 1 h [29]: 300 nM; AUC/dose [30]: 5.8 kg·min/L; AUC/dose [31]: 6.9 kg·min/L; AUCt [32]: 0.91 µM·h; Cmax at 1 h [33]: 320 nM
Br.COc1ccc2c3c1O[C@H]1C[C@@H](O)C=C[C@@]31CCN(C)C2 [GALANTAMINE HYDROBROMIDE] | 67% | 2.9 L/kg | 1.9 h | 1.7 | 28.9 kg·min/L | 1.2 h | 0.5 h | 890 nM | 1330 nM | 2 | 2 h | 83% | 5 h | 85% | 1.5 h | 5 L/kg | 2.89 µM·h | 2.9 L/kg | 1 h | 92.6% | AUC/dose [34]: 22.7 kg·min/L; concentration at 1 h [35]: 580 nM; dose excreted [7]: 32%; clearance at 1 h ([10]; blood): 34 mL/min/kg; clearance at 1 h ([20]; blood): 41 mL/min/kg; concentration at 1 h [36]: 420 nM; AUCt/dose [25]: 20.4 kg·min/L; AUC/dose [26]: 29.9 kg·min/L; CL/F [27]: 5.67 mL/min/kg; Tmax [28]: 0.5 h; concentration at 1 h [37]: 730 nM; concentration at 1 h [38]: 1140 nM; Cmax at 1 h [29]: 910 nM; AUC/dose [30]: 17.4 kg·min/L; AUC/dose [31]: 19.3 kg·min/L; AUCt [32]: 3.45 µM·h; Cmax at 1 h [33]: 590 nM
Cl.Nc1c2c(nc3ccccc13)CCCC2 [TACRINE HYDROCHLORIDE] | 29% | 5.2 L/kg | 0.9 h | 11 | 12.4 kg·min/L | 1.1 h | 0.5 h | 360 nM | 310 nM | 9.5 | 0.9 h | 27% | 2 h | 17% | 1.1 h | 5.1 L/kg | 0.7 µM·h | 5.02 L/kg | 1 h | 92.6% | concentration at 1 h [35]: 190 nM; clearance at 1 h ([10]; in vivo): 77 mL/min/kg; fraction unbound [39]: 0.45; Drug excretion [40]: 57%; clearance at 1 h ([20]; in vivo): 93 mL/min/kg; concentration at 1 h [36]: 110 nM; Drug excretion [41]: 23%; AUCt/dose [25]: 10.2 kg·min/L; CL/F [27]: 40.3 mL/min/kg; Tmax [28]: 0.5 h; concentration at 1 h [37]: 1240 nM; concentration at 1 h [38]: 1720 nM; Cmax at 1 h [29]: 740 nM; inhibition [42]: Active; inhibition [43]: Active; AUCt [32]: 0.89 µM·h; Cmax at 1 h [33]: 700 nM
